Like-named read-outs stand apart in the source and are kept apart here.
Key:
[1] = Excipient compatibility with Duro-Tak 87-900A adhesive; format: physicochemical; details: ropivacaine 4% (w/w) and excipient 5% (w/w) in Duro-Tak 87-900A; miscible, no precipitate after 72 hours
Protocol: (§1) Further excipients were assessed for ropivacaine solubility and compatibility with Duro-Tak® adhesive 87-900A. Adhesive compatibility was assessed by mixing ropivacaine (4% (w/w)) and excipient (5% (w/w)) with Duro-Tak® 87-900A.

[2] = Approximate ropivacaine solubility in excipients, assessed visually; format: physicochemical
Protocol: Approximate solubilities were assessed visually by gradual addition of ropivacaine to a known volume of excipient at room temperature until saturation was observed.
as §1

[3] = local anaesthetic during cataract surgery, cited from earlier work
[4] = solubility of ropivacaine in the named excipient, gradual addition at room temperature, visual

Compound: CCCCCCCC/C=C\CCCCCCCC(=O)OCC(O)CO (stereo not shown) [Capmul-GMO-50, glycerol monooleate]
- 900A Compatible [1]: no

Compound: CO[C@H]1CO[C@H]2[C@@H]1OC[C@H]2OC [DMI, dimethylisosorbide]
- % Solubility (ropivacaine in candidate excipient) [2, 4]: 2.8-3.6 % w/v

Compound: CCOCCOCCO [Transcutol P, ethoxy diglycol]
- 900A Compatible [1]: yes
- % Solubility (ropivacaine in candidate excipient) [2, 4]: 4.1-4.6 % w/v

Compound: CCCN1CCCC[C@H]1C(=O)Nc1c(C)cccc1C [ropivacaine, (2S)—N-(2,6-dimethylphenyl)-1-propyl-2-piperidinecarboxamide]
- potency relative to lidocaine ([3]; dose-for-dose): as much as four times as potent as lidocaine
- half life relative to lidocaine [3]: longer half life

Compound: apricot kernel oil PEG-6 esters [Labrafil M 1944 CS]
- % Solubility (ropivacaine in candidate excipient) [2]: 1.2-2.1 % w/v

Compound: propylene glycol dicaprylate/dicaprate [Labrafac PG]
- % Solubility (ropivacaine in candidate excipient) [2]: 1.3-1.8 % w/v

Compound: sorbitan monooleate [Span 80]
- 900A Compatible [1]: no

Compound: sorbitan trioleate [Span 85]
- 900A Compatible [1]: yes

Source: patent US10166199B2, “Transdermal patch comprising a ropivacaine formulation” (BUZZZ PHARMACEUTICALS LIMITED, priority 2013, dated 2019)
